What was measured:
[1] = tested on: MUC1-positive T47D breast cancer cells; experiment: RT-PCR of cancer stem cell markers and chromatin rearrangement factors in T47D cells cultured in serum-free minimal media with agent; assay type: cell-based, human
Protocol: (§1) Example 3: Agents that are able to maintain stem cells in the naïve state transform cancer cells into cancer stem cells wherein only a small number of cells are required for engraftment. Cancer cells were cultured according to standard practice. In the controls, the cancer cells were cultured in their normal media: RPMI for T47D breast cancer cells, DU145 and PC3 prostate cancer cells. However, the test agents, recombinant proteins human NME1 dimers, bacterial HSP593 NME1 dimers, human NME7-AB and 2i, were added to a serum-free minimal media to eliminate potential interference from the many growth factors and cytokines in serum.
Serum-free Minimal Media 500 mL includes the following components: 394 mL DMEM/F12, GlutaMAX; 100 mL Knockout™ Serum Replacement; 5.0 mL 100×MEM Non-essential Amino Acid Solution; 0.9 mL P-mercaptoethanol, 55 mM stock.
(§2) To this serum-free minimal media, rhNME1 (aka NM23) was added to a final concentration of 8 nM, or bacterial HSP593 recombinant NME1 was added to a final concentration of 8 nM, or rhNME7-AB was added to a final concentration of 4 nM, or 2i inhibitors, PD0325901 and CHIR99021, which inhibit the MAP kinase pathway and GSK3, respectively, were added to a final concentration of 3 μM and 1 μM.
When a rho kinase inhibitor, “Ri” or “ROCi”, was added it was Y27632 from Stemgent (Cambridge, Mass.), added immediately before use to a final concentration of 10 uM.
Example 3a: Breast cancer T47D cells were cultured either in the traditional RPMI growth media or in a minimal stem cell media to which was added either human NME1 dimers, also known as NM23-H1, bacterial HSP593 NME1 dimers, human NME7-AB, or kinase inhibitors known as ‘2i’. What these agents have in common is that they are each able to promote the growth of stem cells in the naive state or are able to revert primed state stem cells to the less mature naive state. We observed that some of the T47D cancer cells cultured in any of these agents became non-adherent. These ‘floaters’ were also morphologically different. The addition of a rho kinase inhibitor, called ‘Ri’ or ‘ROCP here caused most of the cells to remain attached to the surface. […] When a rho kinase inhibitor is added, all the cells remain attached but the RT-PCR measurements indicate that the resultant measure is of a mixture of the cells that were transformed and those that were not or were not yet.
Example 3c: In this example, the effect of ‘2i’ inhibitors on cancer cells was tested. Recall that 2i is the name given to 2 small molecules, […] that inhibit the MAP kinase pathway and GSK3 respectively. […] In this experiment, we cultured MUCl-positive T47D breast cancer cells in minimal media to which was added either 2i or NME7-AB.

[2] = tested on: DU145 MUC1-positive prostate cancer cells; experiment: RT-PCR of cancer stem cell markers in DU145 cells cultured with agent; assay type: cell-based, human; conditions: after 9-10 passages; FIG. 11b
Protocol: as §1, §2
Example 3b: Prostate cancer cells were also cultured as described above with either human NME1 dimers, bacterial NME1 dimers, NME7-AB, or 2i inhibitors. […] Thus, the RT-PCR measurements of the cancer stem cell markers are lower than that of the T47D cells, which could be explained by it being the measure of transformed cells and non-transformed cells. In the case of breast cancer cells, we were able to isolate the fully transformed cancer stem cells by collecting the floating cells, but were not able to do so here. DU145 MUC1-positive prostate cancer cells were cultured in RPMI media as a control and in minimal media to which was added recombinant human NME1/NM23 dimers, bacterial HSP593 dimers, or human NME7-AB. […] There was about a 2-8-fold increase in OCT4, MUC1 and CDH1/E-cadherin. However, after serial passaging under these same culture conditions, the increases in expression of cancer stem cell markers became more pronounced. We reasoned that serial passaging allowed more time for cells to transform since we could not rapidly collect floating cells.

[3] = tested on: Human HES-3 embryonic stem cells; experiment: Human embryonic stem cell culture with NME protein as only growth factor; assay type: cell-based; conditions: serum-free minimal base media, agent as the only growth factor or cytokine
Text: Factors that are able to maintain stem cells in the naive state are also able to transform cells to a cancer-like or stem-like state and are also able to transform cancer cells to a cancer stem cell state or a more metastatic state. Herein, we have shown several examples of bacterial NME1 being able to function like human NME1 dimers, which are also able to function like NME7 or NME7-AB. However, the primary example that these factors function in a very similar way is their ability to promote the growth of stem cells, inhibit differentiation and maintain them in the naive state. […] Human HES-3 embryonic stem cells were cultured in a serum-free minimal base media with either HSP 593, human NME1 or NME7-dimers or human NME7-AB as the only growth factor or cytokine. […] Several examples have been presented here that indicate that contacting cells with an agent or agents that are able to revert stem cells from the primed state to the less mature naive state are also able to revert a wide variety of cell types to a less mature state: somatic cells to stem or progenitor cells or cancer cells to more metastatic state also called cancer stem cell state. Therefore, the invention is not meant to be limited to a specific cell type or a specific cancer cell type.

human fibroblasts = experiment: RT-PCR of stem/cancer markers and chromatin rearrangement factors in fibroblasts cultured with NME proteins; assay type: cell-based; conditions: after 15-20 days in culture
Protocol: Agents that are able to maintain stem cells in the naive state are also able to transform somatic cells to a cancer or stem-like state. Human NME1 dimer or human NME7 are able to make somatic cells revert to a less mature state, expressing stem and cancer cell markers. Bacterial NME from HSP 593 was tested alongside the human homologs to determine if it could mimic their function by being able to revert somatic cells to a cancer-like state. Human fibroblasts were cultured in a serum-free minimal base media with either HSP 593, human NME1 dimers or human NME7-AB as the only growth factor or cytokine. […] Recalling that stem cells and metastatic cancer cells can grow anchorage-independently, we repeated the experiments but this time a rho kinase inhibitor was added to one set of cells to make the cells adhere to the surface. […] Photos of the experiment show the dramatic change in morphology as the fibroblasts revert when cultured in human or bacterial NME, FIGS. 52-59. The relative order of efficiency of reverting somatic cells to a less mature state was NME7>NME1 dimers >NME1 bacterial. […] However, Bacterial NME from HSP 593 apparently up-regulates expression of human NME7 and NME1.
Example 3d: In this example, fibroblast cells were cultured in the presence of recombinant human NME1/NM23 dimers, bacterial HSP593 NME1 dimers or NME7-AB. The fibroblasts were cultured in their normal media as a control, which is for 500 mL, 445 mL DMEM high glucose base media, 5 mL GlutaMAX and 50 mL of fetal bovine serum (FBS). After 15-20 days in culture with either NME1/NM23 dimers, bacterial HSP593 NME1 dimers or NME7-AB, the morphology of the cells completely changed so that they no longer were recognizable as fibroblasts. […] Here, ‘minus ROCi’ refers to cells that became non-adherent and floated off the surface.

[4] = tested on: PC3 MUC1-negative prostate cancer cells; experiment: RT-PCR of stem cell markers in PC3 cells cultured with agent; assay type: cell-based, human
Protocol: as §1, §2
PC3 MUCl-negative prostate cancer cells were also tested for their ability to transform into cancer stem cells when cultured in agents that are able to maintain stem cells in the naïve state. PC3 cells were cultured as described above with either human NME1 dimers, bacterial NME1 dimers or NME7-AB. […] Thus, the RT-PCR measurements of the cancer stem cell markers may be lower because measurements will be the average of transformed cells and non-transformed cells.

For “NME1 dimers: recombinant human NM23, also called NME1, dimers that bear the 5120G mutation that stabilizes dimers”, the “expression of CDH1 (E-cadherin), MUC1 and NANOG” value ([1]; FIG. 7) was “increases”, the “expression of CXCR4, SOX2 and OCT4” value ([1]; FIG. 7) was “dramatic increases” and the “expression of stem cell markers KLF2 and KLF4” value ([1]; FIG. 7) was “modest increases”. The “expression of MBD3, CHD4, BRD4 and JMJD6” value ([1]; cancer cells cultured in agent, FIG. 13, FIG. 14) was “naturally suppressed”, the “expression of NANOG and OCT4” value [2] was “significant increases” and the “increase in the expression of CDH1/E-cadherin” value [2] was 6 fold. The “support of human stem cell growth” value [3] was “fully supported human stem cell growth”, the “expression of stem cell marker genes OCT4 and NANOG” value (human fibroblasts; FIG. 15) was “greatly increased expression” and the “expression of BRD4, JMJD6, MBD3 and CHD4” value (human fibroblasts; FIG. 16) was “decreased expression”. For the same substance, the “expression of stem cell markers SOX2, OCT4 and NANOG” value ([4]; after passage in agent, FIG. 12a) was “modest increases” and the “expression of cancer stem cell or stem cell markers” value ([4]; serial passaging in the media, FIG. 12b) was “decreased”.

From US20220193270A1, “METHOD FOR ENHANCING TUMOR GROWTH” (MINERVA BIOTECHNOLOGIES CORPORATION, priority 2013, published 2022)
